This note sets out measurements from patent publication US9187438B2, “Derivatives of benzothiazines, preparation thereof and application thereof as drugs” (PIERRE FABRE MEDICAMENT, priority 2009, dated 2015).

Common to all, as to format: biochemical
In assay [1] the target is T1, 11β-HSD1 (Homo sapiens, UniProt P28845).
T1 construct: adding 1 μg of human hepatic microsome (Xenotech); tissue Xenotech; host or cells: human liver microsomes
The experiment in a line: Human enzymatic activity of 11β-HSD1 from liver microsomes, cortisone to cortisol conversion, HTRF detection (inhibition %). The conditions noted are these: 10^−6M inhibitor, read-out: 11β-HSD1/HTRF % inhib. (10^−6M). How it is done: 1) Human Enzymatic Activity of 11β-HSD1 from Liver Microsomes after Treatment with Inhibitor Compounds (Inhibition %).
The enzymatic test is based on the conversion of cortisone into cortisol by 11β-HSD1. […] A calibration curve of known cortisol concentrations is produced simultaneously under the same experimental conditions. The plates are incubated for 2 hours at 37° C. (enzymatic phase). By adding 25 μL of conjugate cortisol-d2 and of 25 μL of anti-cortisol anαtibody labeled with Eu^3+ cryptate per well, the enzymatic reaction may be stopped and after incubation of 2 hours at room temperature the formed cortisol (detection phase) may be quantified by HTRF® (CIS bio international, reference 62CO2PEC). The fluorescence measurements are conducted with a Fusion™ α(Perkin Elmer) reader. For each well, fluorescence is measured at 620 nm and at 665 nm. A ratio (λ665 nm/λ620 nm) and a specific FRET signal are calculated, with which an inhibition percentage may be determined for each concentration of evaluated inhibitor compound.

For assay [2], the target named is T1, 11β-HSD1. As to the kind of experiment: Human enzymatic activity of 11β-HSD1 from liver microsomes, [3H]cortisone to [3H]cortisol conversion, SPA (inhibition % or EC50). The note with it: for inhibition at 1 µM: 10^−6M inhibitor, read-out: 11β-HSD1/SPA % inhib. (10^−6M). How it is done: The enzymatic test is based on the conversion of [^3H] cortisone into [^3H] cortisol by 11β-HSD1. […] The sealed plates are centrifuged at low speed for mixing the components and then incubated for 2 hours at 37° C. (enzymatic phase). The enzymatic reaction is stopped by adding 70 μl/well of complex [10 mg/mL of yttrium silicate SPA beads associated with the protein A (GE Healthcare) and pre-incubated with an anti-cortisol monoclonal antibody (East Coast Biologics, ME)] containing 10 μM of 18β-glycerrhitinic acid. The plates are sealed and then incubated under slow orbital stirring for 2 hours at room temperature (detection phase).

The next assay concerns the target T2, 11β-HSD2 (Homo sapiens, UniProt P80365).
T2 construct: of human kidney microsomes (Xenotech); tissue Xenotech; host or cells: human kidney microsomes
T2 sequence (P80365 1-405): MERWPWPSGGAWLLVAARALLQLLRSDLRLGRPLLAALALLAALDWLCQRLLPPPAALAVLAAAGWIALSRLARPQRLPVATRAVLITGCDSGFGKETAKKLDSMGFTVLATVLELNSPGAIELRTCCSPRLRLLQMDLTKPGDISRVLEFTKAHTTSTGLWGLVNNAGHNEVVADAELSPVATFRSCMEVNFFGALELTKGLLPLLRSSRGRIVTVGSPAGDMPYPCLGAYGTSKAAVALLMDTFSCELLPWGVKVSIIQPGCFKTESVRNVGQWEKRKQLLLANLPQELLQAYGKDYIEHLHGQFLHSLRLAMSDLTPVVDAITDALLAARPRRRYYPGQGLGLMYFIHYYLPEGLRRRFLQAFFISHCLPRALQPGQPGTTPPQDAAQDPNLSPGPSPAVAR
As to the kind of experiment: Human enzymatic activity of 11β-HSD2 from kidney microsomes, [3H]cortisol to [3H]cortisone conversion, SPA (inhibition %). The conditions noted are these: 10^−5M inhibitor, read-out: 11β-HSD2/SPA % inhib. (10^−5M). Here is the method: 3) Human Enzymatic Activity of 11β-HSD2 from Kidney Microsomes after Treatment with the Inhibitor Compounds (Inhibition %).
The enzymatic test is based on the conversion of [^3H] cortisol into [^3H] cortisone by 11β-HSD2. The enzymatic reaction is started by adding 0.75 μg (standardization of this amount in order to obtain 80% of the conversion maximum of the substrate under the experimental conditions) of human kidney microsomes (Xenotech) to wells (Optiplate™ 96-well plates, a reaction volume of 50 μL) containing 8 nM [1,2,6,7-^3H] cortisol (specific activity of 70-75 Ci/mmol, Amersham-GE Healthcare) in a 50 mM HEPES buffer (pH 7.4) with 100 mM KCl, 5 mM NaCl, 2 mM MgCl2, 1 mM NAD^+ and the inhibitor compound or the carrier (1% DMSO). The sealed plates are centrifuged at low speed in order to mix the components and then incubated for 2 hours at 37° C. (enzymatic phase). The enzymatic reaction is stopped by adding 70 μl/well of complex [10 mg/mL of yttrium silicate SPA beads associated with protein A (GE Healthcare) and pre-incubated with an anti-cortisol monoclonal antibody (East Coast Biologics, ME)] containing 10 μM of 18β-glycerrhitinic acid. The plates are sealed and then incubated under slow orbital stirring for 2 hours at room temperature (detection phase). After centrifugation, the measurements are conducted with a scintillation counter TopCount NXT (Perkin Elmer). An inhibition percentage for each evaluated compound concentration is calculated relatively to the standard enzymatic activity (carrier 1% DMSO).

T1 sequence (P28845 whole entry): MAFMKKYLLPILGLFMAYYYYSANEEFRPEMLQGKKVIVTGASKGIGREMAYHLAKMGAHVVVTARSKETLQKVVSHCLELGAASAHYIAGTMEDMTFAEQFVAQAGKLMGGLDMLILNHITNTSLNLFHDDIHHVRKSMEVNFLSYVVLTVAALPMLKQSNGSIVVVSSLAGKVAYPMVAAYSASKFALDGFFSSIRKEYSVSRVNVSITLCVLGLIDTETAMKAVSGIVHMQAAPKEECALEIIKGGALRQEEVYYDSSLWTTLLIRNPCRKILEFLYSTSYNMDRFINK

In the case of `CCN1C(C(=O)c2ccc3ccccc3c2)=C(O)c2ccc(F)cc2S1(=O)=O` [Example 18, (7-Fluoro-4-hydroxy-2-ethyl-1,1-dioxo-2H-benzo[e][1,2]thiazin-3-yl)(naphthalen-2-yl)methanone], the inhibition at 1 µM at 11β-HSD1 [1] worked out at 100%. For the same compound, at 11β-HSD1 [2], it took 69 nM to reach a half-maximal effect (EC50) and the inhibition at 1 µM came out at 91%. In addition, the inhibition at 10 µM on 11β-HSD2 amounted to 25%.

As for `CN1C(C(=O)c2ccc(Cl)c(Cl)c2)=C(O)c2ccccc2S1(=O)=O` [Example 123, (4-hydroxy-2-methyl-1,1-dioxo-2H-benzo[e][1,2]thiazin-3-yl) (3,4-dichlorophenyl)methanone], the figures for the inhibition at 1 µM on 11β-HSD1 [1] and on 11β-HSD1 [2] were 100% and 93%, respectively. Besides, the concentration for a half-maximal effect (EC50) at 11β-HSD1 [2] was 43 nM. Also, the inhibition at 10 µM on 11β-HSD2 came to 31%.

Consider `CCN1C(C(=O)c2ccc3ccccc3c2)=C(O)c2ccccc2S1(=O)=O` [Example 9, (4-hydroxy-2-ethyl-1,1-dioxo-2H-benzo[e][1,2]thiazin-3-yl)(naphthalen-2-yl)methanone], for which the inhibition at 1 µM on 11β-HSD1 [1] was 98%. Moreover, at 11β-HSD1 [2], the midpoint of the response, the EC50, lay at 60 nM and the inhibition at 1 µM came out at 88%. The inhibition at 10 µM on 11β-HSD2 worked out at 5%.

For `Cc1ccc(C(=O)C2=C(O)c3ccccc3S(=O)(=O)N2C)cc1` [Example 3, (4-hydroxy-2-methyl-2H-1,1-dioxo-benzo[e][1,2]thiazin-3-yl) (4-methylphenyl)methanone], the inhibition at 1 µM at 11β-HSD1 [1] was found to be 99%. Moreover, at 11β-HSD1 [2], a half-maximal response (EC50) required 64 nM and the inhibition at 1 µM was found to be 93%. In addition, the inhibition at 10 µM on 11β-HSD2 was determined as 33%.

For the compound `CN1C(C(=O)c2ccc3ccccc3c2)=C(O)c2ccc(F)cc2S1(=O)=O` [Example 17, (7-Fluoro-4-hydroxy-2-methyl-1,1-dioxo-2H-benzo[e][1,2]thiazin-3-yl)(naphthalen-2-yl)methanone], the inhibition at 1 µM on 11β-HSD1 [1] turned out to be 100%. Moreover, on 11β-HSD1 [2], the EC50 was found to be 11 nM and the inhibition at 1 µM was found to be 99%. The inhibition at 10 µM on 11β-HSD2 worked out at 61%.

Take `CN1C(C(=O)c2ccc3ccccc3c2)=C(OC(=O)COc2ccccc2)c2ccccc2S1(=O)=O` [Example 54, Phenoxyacetic acid 2-methyl-3-(naphthalene-2-ylcarbonyl)-1,1-dioxo-2H-benzo[e][1,2]thiazin-4-yl ester]: the inhibition at 1 µM at 11β-HSD1 [1] turned out to be 100%; on 11β-HSD1 [2], 97%. This compound returned an EC50 on 11β-HSD1 [2] of 27 nM. Further, the inhibition at 10 µM at 11β-HSD2 came to 71%.

Regarding `CN1C(C(=O)c2ccc3ccccc3c2)=C(O)c2ccccc2S1(=O)=O` [Example 1, (4-Hydroxy-2-methyl-1,1-dioxo-2H-benzo[e][1,2]thiazin-3-yl)(naphthalen-2-yl)methanone], the inhibition at 1 µM on 11β-HSD1 [1] came out at 99%; on 11β-HSD1 [2], 97%. This compound also returned an EC50 at 11β-HSD1 [2] of 16 nM. Further, at 11β-HSD2, the inhibition at 10 µM was found to be 42%.

Regarding `CN1C(C(=O)c2cccc(Br)c2)=C(O)c2ccccc2S1(=O)=O` [Example 142, (3-Bromo-phenyl)-(4-hydroxy-2-methyl-1,1-dioxo-1,2-dihydro-2H-benzo[e][1,2]thiazin-3-yl)-methanone], the inhibition at 1 µM at 11β-HSD1 [1] amounted to 100%; on 11β-HSD1 [2] it was 87%. The compound further gave an EC50 on 11β-HSD1 [2] of 21 nM.

On to `CC(=O)OC1=C(C(=O)c2ccc3ccccc3c2)N(C)S(=O)(=O)c2ccccc21` [Example 46, Acetic acid 2-methyl-3-(naphthalene-2-carbonyl)-1,1-dioxo-2H-benzo[e][1,2]thiazin-4-yl ester], for which the inhibition at 1 µM at 11β-HSD1 [1] was determined as 100%. On 11β-HSD1 [2], the concentration for a half-maximal effect (EC50) is 72 nM and the inhibition at 1 µM came out at 91%. The inhibition at 10 µM on 11β-HSD2 is 63%.
